One compound from PMC11976424 (Journal of Advanced Research, 2024) can be followed below.

Structures are written as SMILES.

In assay [1] the target is AMPKα1β1γ1 (AMP-activated protein kinase) (Homo sapiens, UniProt Q13131). Put plainly: SPR. In kind it is binding.
In assay [2] the target is AMPKα2β1γ1 (AMP-activated protein kinase) (Homo sapiens, UniProt P54619+P54646+Q9Y478). The assay can be described thus: SPR. It is filed as binding.
AMPKα2β1γ1 (AMP-activated protein kinase), sequence (P54646 whole entry): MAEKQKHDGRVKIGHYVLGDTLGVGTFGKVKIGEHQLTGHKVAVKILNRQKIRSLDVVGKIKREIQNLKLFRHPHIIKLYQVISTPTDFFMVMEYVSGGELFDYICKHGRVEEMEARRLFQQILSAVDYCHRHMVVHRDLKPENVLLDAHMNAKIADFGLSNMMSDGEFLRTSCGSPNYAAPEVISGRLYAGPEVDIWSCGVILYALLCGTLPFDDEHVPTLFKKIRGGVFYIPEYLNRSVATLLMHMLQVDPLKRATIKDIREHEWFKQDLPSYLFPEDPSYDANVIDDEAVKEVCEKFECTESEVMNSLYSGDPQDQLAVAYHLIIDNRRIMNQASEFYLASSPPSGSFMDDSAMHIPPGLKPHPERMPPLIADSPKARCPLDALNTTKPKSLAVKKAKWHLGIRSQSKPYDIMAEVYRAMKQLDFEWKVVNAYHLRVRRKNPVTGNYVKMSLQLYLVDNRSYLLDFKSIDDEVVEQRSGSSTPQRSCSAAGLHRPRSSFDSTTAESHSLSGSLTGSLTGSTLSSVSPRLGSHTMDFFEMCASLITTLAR
AMPKα2β1γ1 (AMP-activated protein kinase), sequence (Q9Y478 2-270 partner): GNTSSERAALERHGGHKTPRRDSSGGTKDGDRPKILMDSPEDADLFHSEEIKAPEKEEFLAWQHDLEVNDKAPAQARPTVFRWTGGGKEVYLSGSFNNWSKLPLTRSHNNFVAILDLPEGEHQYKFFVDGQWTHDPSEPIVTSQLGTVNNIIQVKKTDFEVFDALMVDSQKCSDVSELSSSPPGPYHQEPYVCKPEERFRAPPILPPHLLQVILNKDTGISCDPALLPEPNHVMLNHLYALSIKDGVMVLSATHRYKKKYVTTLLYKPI
AMPKα2β1γ1 (AMP-activated protein kinase), sequence (P54619 whole entry partner): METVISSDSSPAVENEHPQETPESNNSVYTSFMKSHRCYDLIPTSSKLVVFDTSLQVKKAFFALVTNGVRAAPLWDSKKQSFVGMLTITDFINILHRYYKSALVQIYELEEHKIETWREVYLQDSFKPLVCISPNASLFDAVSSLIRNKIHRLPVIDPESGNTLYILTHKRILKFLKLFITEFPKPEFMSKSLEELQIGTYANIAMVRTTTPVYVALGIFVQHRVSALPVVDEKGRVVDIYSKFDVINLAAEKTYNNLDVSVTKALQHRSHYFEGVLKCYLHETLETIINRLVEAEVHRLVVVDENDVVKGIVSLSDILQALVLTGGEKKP

AMPKα1β1γ1 (AMP-activated protein kinase), sequence (Q13131 whole entry): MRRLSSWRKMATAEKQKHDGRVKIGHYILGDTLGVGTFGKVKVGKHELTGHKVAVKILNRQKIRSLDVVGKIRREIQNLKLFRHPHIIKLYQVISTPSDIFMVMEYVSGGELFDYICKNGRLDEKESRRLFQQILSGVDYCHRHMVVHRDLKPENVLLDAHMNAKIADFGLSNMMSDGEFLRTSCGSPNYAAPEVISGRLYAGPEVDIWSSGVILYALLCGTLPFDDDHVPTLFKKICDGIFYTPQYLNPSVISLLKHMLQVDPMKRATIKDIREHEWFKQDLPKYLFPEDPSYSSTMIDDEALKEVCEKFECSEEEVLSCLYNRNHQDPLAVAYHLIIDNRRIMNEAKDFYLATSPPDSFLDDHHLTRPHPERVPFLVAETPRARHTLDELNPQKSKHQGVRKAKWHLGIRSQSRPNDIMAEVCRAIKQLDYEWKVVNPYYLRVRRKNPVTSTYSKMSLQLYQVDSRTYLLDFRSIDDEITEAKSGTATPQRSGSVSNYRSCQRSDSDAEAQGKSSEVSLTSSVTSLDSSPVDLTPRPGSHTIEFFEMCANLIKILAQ
AMPKα1β1γ1 (AMP-activated protein kinase), sequence (Q9Y478 2-270 partner): as the sequence (Q9Y478 2-270 partner) above
AMPKα1β1γ1 (AMP-activated protein kinase), sequence (P54619 whole entry partner): as the sequence (P54619 whole entry partner) above

As to `OC[C@H]1O[C@@H](Oc2c(O)cc(O)cc2/C=C/c2ccc(O)cc2)[C@H](O)[C@@H](O)[C@@H]1O` [TSG, 2,3,5,4′-tetrahydroxystilbene-2-O-β-D-glucoside], the Kd (usually the constant that tells how readily two partners part at equilibrium) in assay [1] turned out to be 3.77 µM; in assay [2], 4.67 µM.
